For 40 molecules, inhibition and IC50 results are on record in patent US9751845B2, “5-HT2B antagonists” (National Institute of Biological Sciences, Beijing, priority 2014, dated 2017).

The assay concerns the target T1, 5-HT2B Receptors (Homo sapiens, UniProt P41595).
T1 construct: expressed in transfected cells
Put plainly: Antagonist activity assay (FLIPR, CHO-K1/5-HT2B stable cell line). In kind it is cell-based. To be noted: for inhibition at 1 µM: 1 μM compound, CHO-K1/5-HT2B cells stimulated with 12 nM (EC80) 5-HT; for IC50: CHO-K1/5-HT2B cells, antagonist mode vs EC80 5-HT. On the procedure: Briefly, CHO-K1 cells expressing 5-HT2B were seeded in a 384-well black-wall, clear-bottom plate at a density of 20,000 cells per well in 20 μL of growth medium (10% dialyzed FBS+90% F12), 18 hours prior to the day of experiment and maintained at 37° C./5% CO2. 20 μL of dye-loading solution and 10 μL of tested compound solution (at concentrations five times to the final assay concentrations) were added into the well. Then the plate was placed into a 37° C. incubator for 60 minutes, followed by 15 minutes at room temperature. At last, 12.5 μL of control agonist (at concentrations five times to the EC80 concentrations) was added. The control agonist was added to reading plate at 20 s and the fluorescence signal was monitored for an additional 100 s (21 s to 120 s). In screening, cells stimulated with assay buffer (HBSS-HEPES) containing 0.1% DMSO were chosen as background; cell stimulated with 12 nM (EC80 of the cell line) of 5-HT were chosen as the agonist control; cell treated with SB206553 were chosen as positive control of the screening.
Data acquisition and analyses are performed using ScreenWorks (version 3.1) program. The average fluorescent intensity value during 1 s to 20 s calculated as the baseline reading. The relative fluorescent units (ΔRFU) intensity values were calculated with the maximal fluorescent units (21 s to 120 s) subtracting the average value of baseline reading. The % inhibition of the test article is calculated from the following equation: % inhibition=[1−(ΔRFUCompound−ΔRFUBackground)/(ΔRFUAgonist control−ΔRFUBackground)]*100

T1 sequence (P41595 whole entry): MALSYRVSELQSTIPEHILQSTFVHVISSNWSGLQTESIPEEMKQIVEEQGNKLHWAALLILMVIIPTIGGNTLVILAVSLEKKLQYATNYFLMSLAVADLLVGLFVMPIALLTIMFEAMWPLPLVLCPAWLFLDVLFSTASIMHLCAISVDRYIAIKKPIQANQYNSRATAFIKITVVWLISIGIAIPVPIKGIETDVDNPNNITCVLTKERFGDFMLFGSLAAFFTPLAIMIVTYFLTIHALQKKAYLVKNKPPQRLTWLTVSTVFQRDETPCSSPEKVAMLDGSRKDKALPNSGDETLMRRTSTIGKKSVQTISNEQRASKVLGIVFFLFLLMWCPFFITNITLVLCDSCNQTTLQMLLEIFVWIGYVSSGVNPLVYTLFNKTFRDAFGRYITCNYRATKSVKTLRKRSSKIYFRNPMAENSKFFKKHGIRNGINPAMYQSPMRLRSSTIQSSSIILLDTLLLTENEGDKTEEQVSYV

For `CC1(C)N=C(N)N=C(Nc2ccccc2)N1` [1-a], the inhibition at 1 µM is less than 50%.

For the molecule `COc1ccccc1NC1=NC(N)=NC(C)(C)N1` [1-b], the inhibition at 1 µM is less than 50%. For `CC1(C)N=C(N)N=C(Nc2cccc(Br)c2)N1` [1-c], the inhibition at 1 µM worked out at 75.9 ± 11.5% and the midpoint of inhibition, the IC50, lay at 328 nM. For `CC1(C)N=C(N)N=C(Nc2ccc(Cl)cc2)N1` [1-d], in that order: 93.1 ± 4.2% and 1640 nM. As for `CC1(C)N=C(N)N=C(Nc2ccc(Br)cc2)N1` [1-e], the inhibition at 1 µM was less than 50%. As to `CC1(C)N=C(N)N=C(Nc2ccc(I)cc2)N1` [1-f], the inhibition at 1 µM is less than 50% and the midpoint of inhibition, the IC50, lay at 2510 nM. On to `CCOc1ccc(NC2=NC(N)=NC(C)(C)N2)cc1` [1-g], for which the inhibition at 1 µM is less than 50%. As for `COc1ccccc1NC1=NC(N)=NC2(CCCC2)N1` [1-h], the inhibition at 1 µM is less than 50%. On the same count and under the same terms, then `Cc1cccc(NC2=NC(N)=NC3(CCCC3)N2)c1` [1-i], with less than 50%. `COc1cccc(NC2=NC(N)=NC3(CCCC3)N2)c1` [2-a]: the inhibition at 1 µM amounted to 63.4 ± 15.1% and the IC50 came to 1060 nM. In the case of `NC1=NC2(CCCC2)NC(Nc2ccc(F)cc2)=N1` [2-b], the inhibition at 1 µM was less than 50%. The same measure, in the same setting: for `Cc1ccc(C)c(NC2=NC(N)=NC3(CCCC3)N2)c1` [2-c] the value was less than 50%. For `Cc1cccc(C)c1NC1=NC(N)=NC2(CCCC2)N1` [2-d], the inhibition at 1 µM was less than 50%. Still for that read-out and setting: then `NC1=NC2(CCCCC2)NC(Nc2ccccc2)=N1` [3-a], with less than 50%; and `Cc1ccccc1NC1=NC(N)=NC2(CCCCC2)N1` [3-b], with less than 50%. Still for that read-out and setting: then `COc1ccccc1NC1=NC(N)=NC2(CCCCC2)N1` [3-c], with less than 50%; and `NC1=NC2(CCCCC2)NC(Nc2cccc(F)c2)=N1` [3-d], with 90.9 ± 2.9%; and `NC1=NC2(CCCCC2)NC(Nc2cccc(Cl)c2)=N1` [3-e1], with roughly 95.5%. For the molecule `NC1=NC2(CCCCC2)NC(Nc2cccc(Br)c2)=N1` [3-e2], the inhibition at 1 µM was 97.4 ± 2.2% and 33.4 nM corresponded to half-maximal inhibition (IC50).

As for `NC1=NC2(CCCCC2)NC(Nc2cccc(I)c2)=N1` [3-f], the inhibition at 1 µM was found to be 102 ± 4.5%. For the molecule `COc1cccc(NC2=NC(N)=NC3(CCCCC3)N2)c1` [3-g], the inhibition at 1 µM worked out at 84.6 ± 1.2% and it took 280 nM to reach half-maximal inhibition (IC50). As for `NC1=NC2(CCCCC2)NC(Nc2cccc(C(=O)O)c2)=N1` [3-h], the inhibition at 1 µM was less than 50%. Regarding `CCOC(=O)c1cccc(NC2=NC(N)=NC3(CCCCC3)N2)c1` [3-i], the inhibition at 1 µM turned out to be 107.2 ± 0.6% and the IC50 was determined as 27.3 nM. With `CCNC(=O)c1cccc(NC2=NC(N)=NC3(CCCCC3)N2)c1` [3-j, 3-(4-amino-1,3,5-triazaspiro[5.5]undeca-2,4-dien-2-ylamino)-N-ethylbenzamide], the inhibition at 1 µM was found to be 95.5 ± 4.8% and the IC50 was determined as 104 nM.

For `CCCOC(=O)c1cccc(NC2=NC(N)=NC3(CCCCC3)N2)c1` [3-k], the inhibition at 1 µM stood at 110 ± 2.7% and it took 18.1 nM to reach half-maximal inhibition (IC50).

For `CCN(CC)C(=O)c1cccc(NC2=NC(N)=NC3(CCCCC3)N2)c1` [3-l], the inhibition at 1 µM is less than 50%. On to `Cc1ccc(NC2=NC(N)=NC3(CCCCC3)N2)cc1` [3-m], for which the inhibition at 1 µM came to 50.2 ± 8% and the midpoint of inhibition, the IC50, lay at 486 nM. For `NC1=NC2(CCCCC2)NC(Nc2ccc(Cl)cc2)=N1` [3-n], in that order: 57.2 ± 5.4% and 531 nM. For `CN(C)c1ccc(NC2=NC(N)=NC3(CCCCC3)N2)cc1` [3-o], the inhibition at 1 µM is less than 50%. Still for that read-out and setting: then `CCOC(=O)c1ccc(NC2=NC(N)=NC3(CCCCC3)N2)cc1` [3-p], with 109 ± 4.2%.

For the molecule `NC1=NC2(CCCCC2)NC(Nc2ccc(F)cc2F)=N1` [3-q], the inhibition at 1 µM is less than 50%. On to `NC1=NC2(CCCCC2)NC(Nc2ccc(F)c(F)c2)=N1` [3-r], for which the inhibition at 1 µM worked out at 66.5 ± 2.1%. Regarding `Cc1ccc(NC2=NC(N)=NC3(CCCCC3)N2)cc1C` [3-s], the inhibition at 1 µM was found to be 95.7 ± 1.9% and the IC50 came to 177 nM. For `Cc1cc(C)cc(NC2=NC(N)=NC3(CCCCC3)N2)c1` [3-t], in that order: 69.1 ± 2.7% and 476 nM. On to `COc1ccc(OC)c(NC2=NC(N)=NC3(CCCCC3)N2)c1` [3-u], for which the inhibition at 1 µM came to 81.1 ± 6.7% and the IC50 is 622 nM. Turning to `CCOC(=O)c1cc(NC2=NC(N)=NC3(CCCCC3)N2)ccc1C` [3-v], the inhibition at 1 µM amounted to 108 ± 1.5%. On the same count and under the same terms, then `CCOC(=O)c1cc(NC2=NC(N)=NC3(CCCCC3)N2)cc(Br)c1C` [3-w], with 92.8 ± 3.1%.

In the case of `CCOC(=O)c1cccc(NC2=NC(NC)=NC3(CCCCC3)N2)c1` [3-x, ethyl 3-(4-(methylamino)-1,3,5-triazaspiro[5.5]undeca-2,4-dien-2-ylamino)benzoate], the inhibition at 1 µM is 108% and the IC50 is 49.4 nM. Turning to `CCOC(=O)c1cccc(NC2=NC(N(C)C)=NC3(CCCCC3)N2)c1` [3-y], the inhibition at 1 µM was determined as 91.8 ± 0.4% and the IC50 was 284 nM.

As to `CCCC(=O)c1cccc(NC2=NC(N)=NC3(CCCCC3)N2)c1` [3-z], the inhibition at 1 µM came to 106 ± 0.8% and the midpoint of inhibition, the IC50, lay at 35.8 nM.

As usually defined, the inhibition is the change of the read-out against control, counted positive when it falls. One may read the IC50 as the concentration that inhibits the measured activity by half.
